We go through 2 compounds from US9198900B2, “Treatment of peritoneal injury using JAK inhibitors” (Los Angeles Biomedical Research Institute at Harbor-UCLA …, priority 2011, dated 2015).

For assay [1], the system named is human peritoneal mesothelial cells. The conditions noted are these: cultured human peritoneal mesothelial cells; cited from earlier work.
The test system of the next assay is JAK/STAT signaling. In words: Mesothelial cell exposure to heated PDF in vitro (immunoblot). Format: cell-based, human. The protocol: Mesothelial cell exposure to heated PDF in vitro activated JAK/STAT signaling and induced the STAT-associated protein periostin. Heat-sterilization of PDF generates GDPs. A commercially available immortalized human mesothelial cell line was cultured in standard medium, then switched to control medium or heat-sterilized PDF (30:70, medium:PDF)×4 hrs. Heated PDF induced STAT1 phosphorylation, and the pan-JAKi P6 attenuated this (immunoblot doublet, FIG. 1A). After 24 hrs, P6 also attenuated the secretion of the injurious STAT-associated protein periostin into the medium (immunoblot triplet, FIG. 1B). Five characteristics of periostin make it an attractive marker of Pbarrier injury. 1) Periostin is a marker and mediator for the adoption of a mesenchymal phenotype by injured or transformed epithelial cells^73-75. 2) It participates in fibrous healing^76. Others show periostin in the Pbarrier of patients with fibrosis and encapsulating peritoneal sclerosis (Braun et al, ASN poster, 2011). 3) Periostin supports neovascularization^77. 4) It has a bidirectional regulatory relationship with TGF-β^78. 5) It's promoter region has STAT1 and 5 binding sites (www|.|sabiosciences|.|com/chipqpersearch.php?species_id=0&nfactor=n&ninfo=n&ngene=n&B2=Search&src=genecard&factor=Over+200+TF&gene=POSTN). Thus, we can use periostin to affirm JAK/STAT signaling and mesothelial dedifferentiation.

For another assay, the system named is Met-5A cells. In words: Cleaved caspase-3 Western blot after exposure to peritoneal dialysis fluid. Format: cell-based. The conditions noted are these: 250 nM P6, 24 h; heated PDF, F-PDF, Low GDP-FPDF; FIG. 5N. The method, then:
Methods: Met-5A cells were incubated with heated peritoneal dialysis fluid (PDF), filtered (F-PDF) and Low GDP-FPDF with or without 250 nM JAK inhibitor (Jaki) P6, and cells were harvested at 24 h for measuring cleaved caspase-3 by Western blot as an indication of cell death. 100 μg of cell lysate was separated on a 8-16% SDS polyacrylamide gel. Proteins were transferred onto a nitrocellulose membrane, blocked with 5% BSA in TBST and incubated with primary anti-cleaved caspase-3 antibody (1; 1000, Cell Signaling) overnight. After incubation with a HRP conjugated anti-rabbit antibody (1:1500, GE Healthcare UK Ltd, Piscataway, N.J.), protein bands were visualized by chemiluminiscence (Thermo Scientific). GAPDH serves as an internal control.
In general terms: In western blotting, separated proteins are transferred to a membrane and probed.

Another assay relates to peritoneal membrane. In words: Rat PD with 4.25% Dianeal (biPDF), peritoneal histology. The class given is in vivo. The conditions noted are these: rats undergoing PD with bioincompatible PDF (biPDF), compared to placebo. The text has this: In rats, 10 days of PD with 4.25% Dianeal induced mesothelial cell reactive hyperplasia, fibrosis, inflammation, and JAK1 phosphorylation, all of which are attenuated by a JAK1/2 inhibitor. Visceral and parietal peritoneum respond to biPDF differently^33, 88, so only like tissues were compared across treatments.

Consider `N#C/C(=C\c1ccc(O)c(O)c1)C(=O)NCc1ccccc1` [AG-490], for which the “leptin-induced TGFβ synthesis” value in assay [1] was “abolished”.
Consider `CC(C)(C)c1nc2c3cc[nH]c(=O)c3c3cc(F)ccc3c2[nH]1` [P6], for which the “secretion of the STAT-associated protein periostin into the medium” value in the assay on JAK/STAT signaling (heated PDF, after 24 hrs, FIG. 1B) is on record as “attenuated”. Besides, in the assay with JAK/STAT signaling (immortalized human mesothelial cell line, heat-sterilized PDF (30:70, medium:PDF) x 4 hrs, FIG. 1A), the “STAT1 phosphorylation induced by heated PDF” value was “attenuated”. Further, in the assay on Met-5A cells, the “caspase-3 cleavage induced by PDF (indication of cell death)” value is “reduced”. Besides, in the assay on peritoneal membrane, the “structural integrity of the peritoneal membrane” value is “preserved”.
